From patent US8354441B2, “Oxazoline derivatives” (Hoffmann-La Roche Inc., priority 2009, dated 2013) come the findings set out here.

One assay addresses T1, rat TAAR1 (Rattus norvegicus, UniProt Q923Y9).
T1 construct: expressed in transfected cells; host or cells: HEK293 (ATCC # CRL-1573), stably transfected with pIRESneo2 expression plasmid
Put plainly: TAAR1 radioligand binding with [3H]-rac-2-(1,2,3,4-tetrahydro-1-naphthyl)-2-imidazoline, membranes of stably transfected HEK293 cells. The note with it: second value of the cell, read-out: Ki (μM) mouse/rat: rat. In outline: (§1)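 Competition binding: competitors spanning 10 pM–30 μM displace 60 nM [3H]-rac-2-(1,2,3,4-tetrahydro-1-naphthyl)-2-imidazoline from stably transfected HEK293 membranes (mouse or rat receptor), 30 min, 4 °C, pH 7.0 buffer with Mg2+/Ca2+. Bound label counted after GF/C filtration; 10 μM unlabelled ligand defines non-specific binding.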

A further assay concerns the target T2, mouse TAAR1 (Mus musculus, UniProt Q923Y8).
T2 construct: expressed in transfected cells; host or cells: HEK293 (ATCC # CRL-1573), stably transfected with pIRESneo2 expression plasmid
The description is as above. The note with it: first value of the cell, read-out: Ki (μM) mouse/rat: mouse. The method in brief:
as §1

T1 sequence (Q923Y9 whole entry): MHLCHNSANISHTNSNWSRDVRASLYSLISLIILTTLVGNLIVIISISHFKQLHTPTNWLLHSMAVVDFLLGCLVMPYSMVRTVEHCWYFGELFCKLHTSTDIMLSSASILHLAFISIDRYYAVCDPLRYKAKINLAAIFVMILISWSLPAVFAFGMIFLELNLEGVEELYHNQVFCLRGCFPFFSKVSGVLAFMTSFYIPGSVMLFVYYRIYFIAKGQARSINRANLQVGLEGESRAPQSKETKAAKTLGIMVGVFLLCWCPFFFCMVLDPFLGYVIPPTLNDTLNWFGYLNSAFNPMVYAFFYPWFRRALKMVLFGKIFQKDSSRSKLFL
T2 sequence (Q923Y8 whole entry): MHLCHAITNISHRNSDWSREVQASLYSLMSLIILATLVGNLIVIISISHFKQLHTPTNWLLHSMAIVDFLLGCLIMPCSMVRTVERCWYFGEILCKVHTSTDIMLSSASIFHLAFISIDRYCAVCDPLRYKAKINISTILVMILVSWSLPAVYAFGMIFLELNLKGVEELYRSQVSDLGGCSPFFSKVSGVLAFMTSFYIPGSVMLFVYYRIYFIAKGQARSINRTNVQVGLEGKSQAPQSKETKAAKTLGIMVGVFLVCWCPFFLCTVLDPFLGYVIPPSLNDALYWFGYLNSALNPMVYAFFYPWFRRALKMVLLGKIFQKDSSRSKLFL

As to `CCc1cnc(C(=O)Nc2ccc(CC[C@@H]3N=C(N)O[C@H]3C)cc2)cn1` [Example 227, 5-Ethyl-pyrazine-2-carboxylic acid {4-[2-((4S,5S)-2-amino-5-methyl-4,5-dihydro-oxazol-4-yl)-ethyl]-phenyl}-amide], the Ki at rat TAAR1 was 0.0059 µM; at mouse TAAR1, 0.007 µM.

With `CC(C)c1cncc(C(=O)Nc2ccc(CC[C@H]3COC(N)=N3)cc2)n1` [Example 230, (S)-N-(4-(2-(2-Amino-4,5-dihydrooxazol-4-yl)ethyl)phenyl)-6-isopropylpyrazine-2-carboxamide], the Ki at rat TAAR1 is 0.0016 µM; on mouse TAAR1, 0.0009 µM.

Consider `COc1cc(C(=O)Nc2ccc(CC[C@H]3COC(N)=N3)cc2)nc(Cl)n1` [Example 231, 2-Chloro-6-methoxy-pyrimidine-4-carboxylic acid {4-[2-((S)-2-amino-4,5-dihydro-oxazol-4-yl)-ethyl]-phenyl}-amide], for which the Ki at rat TAAR1 amounted to 0.0013 µM; on mouse TAAR1, 0.0009 µM.
